The nature of the data set: Solubility in oil (sesame oil, benzyl benzoate), visual observation. As to conditions: benzyl benzoate, oil or lipid, thermodynamic from solid.
Procedure: Each of the Example compounds was examined for the solubility in oil (sesame oil, benzyl benzoate).
For the specific gravity of an oil, the following values were applied. • sesame oil (specific gravity: 0.914-0.921) • benzyl benzoate (specific gravity: 1.123) • (Method)
Example compound is measured in a microtube and an oil (sesame oil, or, benzyl benzoate) in an amount to make the concentration 10 mg/0.1 ml is added. After stirring, the solubility is evaluated by visual observation. When the compound is not dissolved, the mixture is heated, and the solubility is evaluated after cooling.
By solubility is commonly meant how much of the substance goes into solution per volume. Read a high solubility as a readily soluble substance. For `O=C(NCCC(F)(F)F)OCN1C(=O)CCc2ccc(OCCCCN3CCN(c4cccc5sccc45)CC3)cc21` [Example 93, N-(3,3,3-trifluoropropyl)carbamic acid 7-[4-(4-benzo[b]thiophen-4-ylpiperazin-1-yl)butoxy]-2-oxo-3,4-dihydro-2H-quinolin-1-ylmethyl ester], the solubility is more than 100 mg/mL.
Under `CCCC(C)C(=O)OCn1c(=O)ccc2ccc(OCCCCN3CCN(c4cccc5sccc45)CC3)cc21` (stereo not shown) [Example 94, 2-methylpentanoic acid 7-[4-(4-benzo[b]thiophen-4-ylpiperazin-1-yl)butoxy]-2-oxo-2H-quinolin-1-ylmethyl ester] stands more than 100 mg/mL; under `CCCCCCCCCCCCCCCCC(=O)OCN1C(=O)CCc2ccc(OCCCCN3CCN(c4cccc5sccc45)CC3)cc21` [Example 95, heptadecanoic acid 7-[4-(4-benzo[b]thiophen-4-ylpiperazin-1-yl)butoxy]-2-oxo-3,4-dihydro-2H-quinolin-1-ylmethyl ester], more than 100 mg/mL.
Take `O=C(OCN1C(=O)CCc2ccc(OCCCCN3CCN(c4cccc5sccc45)CC3)cc21)c1ccoc1` [Example 96, furan-3-carboxylic acid 7-[4-(4-benzo[b]thiophen-4-ylpiperazin-1-yl)butoxy]-2-oxo-3,4-dihydro-2H-quinolin-1-ylmethyl ester]: the solubility is more than 100 mg/mL.
`COCCNC(=O)OCN1C(=O)CCc2ccc(OCCCCN3CCN(c4cccc5sccc45)CC3)cc21` [Example 97, N-(2-methoxyethyl)carbamic acid 7-[4-(4-benzo[b]thiophen-4-ylpiperazin-1-yl)butoxy]-2-oxo-3,4-dihydro-2H-quinolin-1-ylmethyl ester] yielded a solubility of more than 100 mg/mL.
On to `CCOC(=O)CCNC(=O)OCn1c(=O)ccc2ccc(OCCCCN3CCN(c4cccc5sccc45)CC3)cc21` [Example 99, 3-{7-[4-(4-benzo[b]thiophen-4-ylpiperazin-1-yl)butoxy]-2-oxo-2H-quinolin-1-ylmethoxycarbonylamino}-propionic acid ethyl ester], for which the solubility was more than 100 mg/mL.
Then `CCCCOCCOCC(=O)OCN1C(=O)CCc2ccc(OCCCCN3CCN(c4cccc5sccc45)CC3)cc21` [Example 100, (2-butoxyethoxy)acetic acid 7-[4-(4-benzo[b]thiophen-4-ylpiperazin-1-yl)butoxy]-2-oxo-3,4-dihydro-2H-quinolin-1-ylmethyl ester], with more than 100 mg/mL; and `COC(=O)CCCNC(=O)OCn1c(=O)ccc2ccc(OCCCCN3CCN(c4cccc5sccc45)CC3)cc21` [Example 101, 4-{7-[4-(4-benzo[b]thiophen-4-ylpiperazin-1-yl)butoxy]-2-oxo-2H-quinolin-1-ylmethoxycarbonylamino}butyric acid methyl ester], with more than 100 mg/mL; and `CN1CCC(C(=O)OCN2C(=O)CCc3ccc(OCCCCN4CCN(c5cccc6sccc56)CC4)cc32)CC1` [Example 102, 1-methylpiperidine-4-carboxylic acid 7-[4-(4-benzo[b]thiophen-4-ylpiperazin-1-yl)butoxy]-2-oxo-3,4-dihydro-2H-quinolin-1-ylmethyl ester], with more than 100 mg/mL.
For the compound `CCCCC(C)(C)C(=O)OCn1c(=O)ccc2ccc(OCCCCN3CCN(c4cccc5sccc45)CC3)cc21` [Example 103, 2,2-dimethylhexanoic acid 7-[4-(4-benzo[b]thiophen-4-ylpiperazin-1-yl)butoxy]-2-oxo-2H-quinolin-1-ylmethyl ester], the solubility is more than 100 mg/mL.
As to `CCCCCCCCCCCCCCC(=O)OCn1c(=O)ccc2ccc(OCCCCN3CCN(c4cccc5sccc45)CC3)cc21` [Example 104, pentadecanoic acid 7-[4-(4-benzo[b]thiophen-4-ylpiperazin-1-yl)butoxy]-2-oxo-2H-quinolin-1-ylmethyl ester], the solubility was more than 100 mg/mL.
For the compound `CC(C)CCC(=O)OCN1C(=O)CCc2ccc(OCCCCN3CCN(c4cccc5sccc45)CC3)cc21` [Example 105, 4-methylpentanoic acid 7-[4-(4-benzo[b]thiophen-4-ylpiperazin-1-yl)butoxy]-2-oxo-3,4-dihydro-2H-quinolin-1-ylmethyl ester], the solubility was more than 100 mg/mL.
As to `O=C(OCN1C(=O)CCc2ccc(OCCCCN3CCN(c4cccc5sccc45)CC3)cc21)C1CCCCCC1` [Example 106, cycloheptanecarboxylic acid 7-[4-(4-benzo[b]thiophen-4-ylpiperazin-1-yl)butoxy]-2-oxo-3,4-dihydro-2H-quinolin-1-ylmethyl ester], the solubility is more than 100 mg/mL.
Under `O=C(NOCc1ccccc1)OCN1C(=O)CCc2ccc(OCCCCN3CCN(c4cccc5sccc45)CC3)cc21` [Example 107, benzyloxycarbamic acid 7-[4-(4-benzo[b]thiophen-4-ylpiperazin-1-yl)butoxy]-2-oxo-3,4-dihydro-2H-quinolin-1-ylmethyl ester] stands more than 100 mg/mL; under `CCCCCCCCCCCCCCCCC(=O)OCn1c(=O)ccc2ccc(OCCCCN3CCN(c4cccc5sccc45)CC3)cc21` [Example 108, heptadecanoic acid 7-[4-(4-benzo[b]thiophen-4-ylpiperazin-1-yl)butoxy]-2-oxo-2H-quinolin-1-ylmethyl ester], more than 100 mg/mL; under `COCCNC(=O)OCn1c(=O)ccc2ccc(OCCCCN3CCN(c4cccc5sccc45)CC3)cc21` [Example 109, N-(2-methoxyethyl)carbamic acid 7-[4-(4-benzo[b]thiophen-4-ylpiperazin-1-yl)butoxy]-2-oxo-2H-quinolin-1-ylmethyl ester], more than 100 mg/mL.
The compound `O=C(NCc1ccco1)OCn1c(=O)ccc2ccc(OCCCCN3CCN(c4cccc5sccc45)CC3)cc21` [Example 110] returned a solubility of more than 100 mg/mL.
In turn, `CN(Cc1ccccc1)C(=O)OCn1c(=O)ccc2ccc(OCCCCN3CCN(c4cccc5sccc45)CC3)cc21` [Example 111, N-benzyl-N-methylcarbamic acid 7-[4-(4-benzo[b]thiophen-4-ylpiperazin-1-yl)butoxy]-2-oxo-2H-quinolin-1-ylmethyl ester] had a solubility of more than 100 mg/mL.
The compound `C=CCNC(=O)OCn1c(=O)ccc2ccc(OCCCCN3CCN(c4cccc5sccc45)CC3)cc21` [Example 112, N-allylcarbamic acid 7-[4-(4-benzo[b]thiophen-4-ylpiperazin-1-yl)butoxy]-2-oxo-2H-quinolin-1-ylmethyl ester] showed a solubility of more than 100 mg/mL.
For `O=C(NCc1ccccn1)OCn1c(=O)ccc2ccc(OCCCCN3CCN(c4cccc5sccc45)CC3)cc21` [Example 113], the solubility is more than 100 mg/mL.
For the compound `C=CCCCCCCCCC(=O)OCN1C(=O)CCc2ccc(OCCCCN3CCN(c4cccc5sccc45)CC3)cc21` [Example 114, undec-10-enoic acid 7-[4-(4-benzo[b]thiophen-4-ylpiperazin-1-yl)butoxy]-2-oxo-3,4-dihydro-2H-quinolin-1-ylmethyl ester], the solubility is more than 100 mg/mL.
`O=C(NCCc1ccccc1)OCn1c(=O)ccc2ccc(OCCCCN3CCN(c4cccc5sccc45)CC3)cc21` [Example 116, N-phenethylcarbamic acid 7-[4-(4-75 benzo[b]thiophen-4-ylpiperazin-1-yl)butoxy]-2-oxo-2H-quinolin-1-ylmethyl ester]: the solubility is more than 100 mg/mL.
Take `CC(C)NC(=O)OCn1c(=O)ccc2ccc(OCCCCN3CCN(c4cccc5sccc45)CC3)cc21` [Example 117, N-isopropyl-carbamic acid 7-[4-(4-benzo[b]thiophen-4-ylpiperazin-1-yl)butoxy]-2-oxo-2H-quinolin-1-ylmethyl ester]: the solubility is more than 100 mg/mL.
`O=C(OCn1c(=O)ccc2ccc(OCCCCN3CCN(c4cccc5sccc45)CC3)cc21)C1CCCCCC1` [Example 119, cycloheptanecarboxylic acid 7-[4-(4-benzo[b]thiophen-4-ylpiperazin-1-yl)butoxy]-2-oxo-2H-quinolin-1-ylmethyl ester] returned a solubility of more than 100 mg/mL.
Then `O=C(OCN1C(=O)CCc2ccc(OCCCCN3CCN(c4cccc5sccc45)CC3)cc21)C1CCOCC1` [Example 120, tetrahydropyran-4-carboxylic acid 7-[4-(4-benzo[b]thiophen-4-ylpiperazin-1-yl)butoxy]-2-oxo-3,4-dihydro-2H-quinolin-1-ylmethyl ester], with more than 100 mg/mL; and `CC(C)(C)OC(=O)CC(=O)OCN1C(=O)CCc2ccc(OCCCCN3CCN(c4cccc5sccc45)CC3)cc21` [Example 121, malonic acid 7-[4-(4-benzo[b]thiophen-4-ylpiperazin-1-yl)butoxy]-2-oxo-3,4-dihydro-2H-quinolin-1-ylmethyl ester tert-butyl ester], with more than 100 mg/mL; and `O=C(OCn1c(=O)ccc2ccc(OCCCCN3CCN(c4cccc5sccc45)CC3)cc21)N1CCC(F)(F)CC1` [Example 123, 4,4-difluoropiperidine-1-carboxylic acid 7-[4-(4-benzo[b]thiophen-4-ylpiperazin-1-yl)butoxy]-2-oxo-2H-quinolin-1-ylmethyl ester], with more than 100 mg/mL.
`O=C(CCC(F)(F)F)OCN1C(=O)CCc2ccc(OCCCCN3CCN(c4cccc5sccc45)CC3)cc21` [Example 124, 4,4,4-trifluorobutyric acid 7-[4-(4-benzo[b]thiophen-4-ylpiperazin-1-yl)butoxy]-2-oxo-3,4-dihydro-2H-quinolin-1-ylmethyl ester] yielded a solubility of more than 100 mg/mL.
On to `CN(Cc1ccco1)C(=O)OCn1c(=O)ccc2ccc(OCCCCN3CCN(c4cccc5sccc45)CC3)cc21` [Example 125, N-furan-2-ylmethyl-N-methylcarbamic acid 7-[4-(4-benzo[b]thiophen-4-ylpiperazin-1-yl)butoxy]-2-oxo-2H-quinolin-1-ylmethyl ester], for which the solubility is more than 100 mg/mL.
The compound `CC(C)CCC(=O)OCn1c(=O)ccc2ccc(OCCCCN3CCN(c4cccc5sccc45)CC3)cc21` [Example 126, 4-methylpentanoic acid 7-[4-(4-benzo[b]thiophen-4-ylpiperazin-1-yl)butoxy]-2-oxo-2H-quinolin-1-ylmethyl ester] registered a solubility of more than 100 mg/mL.
The compound `O=C(OCN1C(=O)CCc2ccc(OCCCCN3CCN(c4cccc5sccc45)CC3)cc21)C1CCC1` [Example 127, cyclobutanecarboxylic acid 7-[4-(4-benzo[b]thiophen-4-ylpiperazin-1-yl)butoxy]-2-oxo-3,4-dihydro-2H-quinolin-1-ylmethyl ester] displayed a solubility of more than 100 mg/mL.

Values taken from patent US9539252B2, “Piperazine-substituted benzothiophene derivatives as antipsychotic agents” (OTSUKA PHARMACEUTICAL CO., LTD., priority 2011, dated 2017).
